Measured values as given in ChEMBL document CHEMBL2203177, “Tuning the activity of a short arg-trp antimicrobial Peptide by lipidation of a C- or N-terminal lysine side-chain” (ACS Med Chem Lett, 2012).
In brackets after ≈: the same amount, converted by molar mass. Peptide text beside a SMILES is read from it. * marks the point of attachment. Myristoyl = CCCCCCCCCCCCCC(=O)*; Lauroyl = CCCCCCCCCCCC(=O)*; Decanoyl = CCCCCCCCCC(=O)*; Hexanoyl = CCCCCC(=O)*; Butyryl = CCCC(=O)*

How the values were obtained:
Staphylococcus aureus [1] = experiment: Antibacterial activity against Staphylococcus aureus DSM 20231 assessed as growth inhibition after 18 hrs; type: functional; details: DSM 20231, 18 h
Bacillus subtilis [2] = experiment: Antibacterial activity against Bacillus subtilis 168 DSM 402 assessed as growth inhibition after 18 hrs; type: functional; details: subsp. subtilis str. 168 DSM 402, 18 h
Acinetobacter baumannii = experiment: Antibacterial activity against Acinetobacter baumannii DSM 30007 assessed as growth inhibition after 18 hrs; type: functional; details: DSM 30007, 18 h
Escherichia coli = experiment: Antibacterial activity against Escherichia coli DSM 30083 assessed as growth inhibition after 18 hrs; type: functional; details: DSM 30083, 18 h
Pseudomonas aeruginosa = experiment: Antibacterial activity against Pseudomonas aeruginosa DSM 50071 assessed as growth inhibition after 18 hrs; type: functional; details: DSM 50071, 18 h
[3] = Hemolytic activity against human RBC assessed as hemoglobin leakage at 250 ug/ml; type: ADME, cell-based, Erythrocyte; details: human red blood cells, read-out: Activity
Staphylococcus aureus [4] = experiment: Antibacterial activity against Staphylococcus aureus ATCC 43300 assessed as growth inhibition after 18 hrs; type: functional; details: ATCC 43300, 18 h
Bacillus subtilis [5] = experiment: Bactericidal activity against Bacillus subtilis 168 (trpC2)2 assessed as survival rate at twice MIC concentration incubated for 15 mins measured after 18 hrs; type: functional, subsp. subtilis str. 168 (trpC2)2

Compound	MIC (Staphylococcus aureus [1]) [µM]	MIC (Bacillus subtilis [2]) [µM]	MIC (Acinetobacter baumannii) [µM]	MIC (Escherichia coli) [µM]	MIC (Pseudomonas aeruginosa) [µM]	hemolysis at 250 ug/ml [3] [%]	MIC (Staphylococcus aureus [4]) [µM]	Survival (Bacillus subtilis [5]) [%]
CC(=O)NCCCC[C@H](N)C(=O)N[C@@H](CCCNC(=N)N)C(=O)N[C@@H](Cc1c[nH]c2ccccc12)C(=O)N[C@@H](CCCNC(=N)N)C(=O)N[C@@H](Cc1c[nH]c2ccccc12)C(=O)N[C@@H](CCCNC(=N)N)C(=O)N[C@@H](Cc1c[nH]c2ccccc12)C(N)=O (H-K(Ac)RWRWRW-NH2)	> 100	10 (≈ 12.1 µg/mL)	> 100	> 100	> 100	< 10	> 100	
CCCC(=O)NCCCC[C@H](N)C(=O)N[C@@H](CCCNC(=N)N)C(=O)N[C@@H](Cc1c[nH]c2ccccc12)C(=O)N[C@@H](CCCNC(=N)N)C(=O)N[C@@H](Cc1c[nH]c2ccccc12)C(=O)N[C@@H](CCCNC(=N)N)C(=O)N[C@@H](Cc1c[nH]c2ccccc12)C(N)=O (H-K(Butyryl)RWRWRW-NH2)	38 (≈ 47.2 µg/mL)	2 (≈ 2.49 µg/mL)	> 100	38 (≈ 47.2 µg/mL)	> 100	< 10	19 (≈ 23.6 µg/mL)	
CCCCCCCCCC(=O)NCCCC[C@H](N)C(=O)N[C@@H](CCCNC(=N)N)C(=O)N[C@@H](Cc1c[nH]c2ccccc12)C(=O)N[C@@H](CCCNC(=N)N)C(=O)N[C@@H](Cc1c[nH]c2ccccc12)C(=O)N[C@@H](CCCNC(=N)N)C(=O)N[C@@H](Cc1c[nH]c2ccccc12)C(N)=O (H-K(Decanoyl)RWRWRW-NH2)	2 (≈ 2.65 µg/mL)	2 (≈ 2.65 µg/mL)	9 (≈ 11.9 µg/mL)	5 (≈ 6.63 µg/mL)	9 (≈ 11.9 µg/mL)	> 50	1 (≈ 1.33 µg/mL)	0.016
CCCCCC(=O)NCCCC[C@H](N)C(=O)N[C@@H](CCCNC(=N)N)C(=O)N[C@@H](Cc1c[nH]c2ccccc12)C(=O)N[C@@H](CCCNC(=N)N)C(=O)N[C@@H](Cc1c[nH]c2ccccc12)C(=O)N[C@@H](CCCNC(=N)N)C(=O)N[C@@H](Cc1c[nH]c2ccccc12)C(N)=O (H-K(Hexanoyl)RWRWRW-NH2)	5 (≈ 6.35 µg/mL)	0.6 (≈ 0.762 µg/mL)	9 (≈ 11.4 µg/mL)	9 (≈ 11.4 µg/mL)	37 (≈ 47 µg/mL)	< 10	5 (≈ 6.35 µg/mL)	0.211
CCCCCCCCCCCC(=O)NCCCC[C@H](N)C(=O)N[C@@H](CCCNC(=N)N)C(=O)N[C@@H](Cc1c[nH]c2ccccc12)C(=O)N[C@@H](CCCNC(=N)N)C(=O)N[C@@H](Cc1c[nH]c2ccccc12)C(=O)N[C@@H](CCCNC(=N)N)C(=O)N[C@@H](Cc1c[nH]c2ccccc12)C(N)=O (H-K(Lauroyl)RWRWRW-NH2)	4 (≈ 5.42 µg/mL)	9 (≈ 12.2 µg/mL)	18 (≈ 24.4 µg/mL)	9 (≈ 12.2 µg/mL)	> 100	> 50	2 (≈ 2.71 µg/mL)	0.011
CCCCCCCCCCCCCC(=O)NCCCC[C@H](N)C(=O)N[C@@H](CCCNC(=N)N)C(=O)N[C@@H](Cc1c[nH]c2ccccc12)C(=O)N[C@@H](CCCNC(=N)N)C(=O)N[C@@H](Cc1c[nH]c2ccccc12)C(=O)N[C@@H](CCCNC(=N)N)C(=O)N[C@@H](Cc1c[nH]c2ccccc12)C(N)=O (H-K(Myristoyl)RWRWRW-NH2)	9 (≈ 12.4 µg/mL)	9 (≈ 12.4 µg/mL)	35 (≈ 48.4 µg/mL)	35 (≈ 48.4 µg/mL)	> 100	> 50	17 (≈ 23.5 µg/mL)	0.033
N=C(N)NCCC[C@H](NC(=O)[C@H](Cc1c[nH]c2ccccc12)NC(=O)[C@H](CCCNC(=N)N)NC(=O)[C@H](Cc1c[nH]c2ccccc12)NC(=O)[C@H](CCCNC(=N)N)NC(=O)[C@@H](N)CCCCN)C(=O)N[C@@H](Cc1c[nH]c2ccccc12)C(N)=O (H-KRWRWRW-NH2)	37 (≈ 43.4 µg/mL)	2 (≈ 2.34 µg/mL)	> 100	18 (≈ 21.1 µg/mL)	> 100	< 10	9 (≈ 10.6 µg/mL)	7
N=C(N)NCCC[C@H](NC(=O)[C@H](Cc1c[nH]c2ccccc12)NC(=O)[C@H](CCCNC(=N)N)NC(=O)[C@H](Cc1c[nH]c2ccccc12)NC(=O)[C@@H](N)CCCNC(=N)N)C(=O)N[C@@H](Cc1c[nH]c2ccccc12)C(N)=O (H-RWRWRW-NH2)	11 (≈ 11.5 µg/mL)	3 (≈ 3.13 µg/mL)	85 (≈ 88.8 µg/mL)	21 (≈ 21.9 µg/mL)	> 100	< 10	6 (≈ 6.27 µg/mL)	2.8
CC(=O)NCCCC[C@H](NC(=O)[C@H](Cc1c[nH]c2ccccc12)NC(=O)[C@H](CCCNC(=N)N)NC(=O)[C@H](Cc1c[nH]c2ccccc12)NC(=O)[C@H](CCCNC(=N)N)NC(=O)[C@H](Cc1c[nH]c2ccccc12)NC(=O)[C@@H](N)CCCNC(=N)N)C(N)=O (H-RWRWRWK(Ac)-NH2)	> 100	10 (≈ 12.1 µg/mL)	> 100	> 100	> 100	< 10	> 100	
CCCC(=O)NCCCC[C@H](NC(=O)[C@H](Cc1c[nH]c2ccccc12)NC(=O)[C@H](CCCNC(=N)N)NC(=O)[C@H](Cc1c[nH]c2ccccc12)NC(=O)[C@H](CCCNC(=N)N)NC(=O)[C@H](Cc1c[nH]c2ccccc12)NC(=O)[C@@H](N)CCCNC(=N)N)C(N)=O (H-RWRWRWK(Butyryl)-NH2)	> 100	5 (≈ 6.21 µg/mL)	> 100	38 (≈ 47.2 µg/mL)	> 100	< 10	38 (≈ 47.2 µg/mL)	
CCCCCCCCCC(=O)NCCCC[C@H](NC(=O)[C@H](Cc1c[nH]c2ccccc12)NC(=O)[C@H](CCCNC(=N)N)NC(=O)[C@H](Cc1c[nH]c2ccccc12)NC(=O)[C@H](CCCNC(=N)N)NC(=O)[C@H](Cc1c[nH]c2ccccc12)NC(=O)[C@@H](N)CCCNC(=N)N)C(N)=O (H-RWRWRWK(Decanoyl)-NH2)	1 (≈ 1.33 µg/mL)	0.6 (≈ 0.796 µg/mL)	5 (≈ 6.63 µg/mL)	2 (≈ 2.65 µg/mL)	9 (≈ 11.9 µg/mL)	50	1 (≈ 1.33 µg/mL)	0.053
CCCCCC(=O)NCCCC[C@H](NC(=O)[C@H](Cc1c[nH]c2ccccc12)NC(=O)[C@H](CCCNC(=N)N)NC(=O)[C@H](Cc1c[nH]c2ccccc12)NC(=O)[C@H](CCCNC(=N)N)NC(=O)[C@H](Cc1c[nH]c2ccccc12)NC(=O)[C@@H](N)CCCNC(=N)N)C(N)=O (H-RWRWRWK(Hexanoyl)-NH2)	18 (≈ 22.9 µg/mL)	2 (≈ 2.54 µg/mL)	19 (≈ 24.1 µg/mL)	19 (≈ 24.1 µg/mL)	74 (≈ 94 µg/mL)	< 10	9 (≈ 11.4 µg/mL)	0.687
CCCCCCCCCCCC(=O)NCCCC[C@H](NC(=O)[C@H](Cc1c[nH]c2ccccc12)NC(=O)[C@H](CCCNC(=N)N)NC(=O)[C@H](Cc1c[nH]c2ccccc12)NC(=O)[C@H](CCCNC(=N)N)NC(=O)[C@H](Cc1c[nH]c2ccccc12)NC(=O)[C@@H](N)CCCNC(=N)N)C(N)=O (H-RWRWRWK(Lauroyl)-NH2)	1 (≈ 1.35 µg/mL)	1 (≈ 1.35 µg/mL)	9 (≈ 12.2 µg/mL)	4 (≈ 5.42 µg/mL)	18 (≈ 24.4 µg/mL)	> 50	1 (≈ 1.35 µg/mL)	0.004
CCCCCCCCCCCCCC(=O)NCCCC[C@H](NC(=O)[C@H](Cc1c[nH]c2ccccc12)NC(=O)[C@H](CCCNC(=N)N)NC(=O)[C@H](Cc1c[nH]c2ccccc12)NC(=O)[C@H](CCCNC(=N)N)NC(=O)[C@H](Cc1c[nH]c2ccccc12)NC(=O)[C@@H](N)CCCNC(=N)N)C(N)=O (H-RWRWRWK(Myristoyl)-NH2)	2 (≈ 2.77 µg/mL)	4 (≈ 5.53 µg/mL)	9 (≈ 12.4 µg/mL)	17 (≈ 23.5 µg/mL)	70 (≈ 96.8 µg/mL)	> 50	2 (≈ 2.77 µg/mL)	0
N=C(N)NCCC[C@H](NC(=O)[C@H](Cc1c[nH]c2ccccc12)NC(=O)[C@H](CCCNC(=N)N)NC(=O)[C@H](Cc1c[nH]c2ccccc12)NC(=O)[C@@H](N)CCCNC(=N)N)C(=O)N[C@@H](Cc1c[nH]c2ccccc12)C(=O)N[C@@H](CCCCN)C(N)=O (H-RWRWRWK-NH2)	37 (≈ 43.4 µg/mL)	5 (≈ 5.86 µg/mL)	> 100	18 (≈ 21.1 µg/mL)	> 100	< 10	18 (≈ 21.1 µg/mL)	
